Data set [1] can be described thus: Human hepatocyte assay (metabolic stability). The settings on record: human hepatocytes, 37° C., 1.0×10^6 viable cells/mL; read-out: Clint (in vitro intrinsic clearance). It counts as in vitro ADME. As to the method: The metabolic stability of compounds in human hepatocytes was assessed using the following protocol: • 1. Prepare 10 mM stock solutions of compound and control compounds in appropriate solvent (DMSO). Place incubation medium (L-15Medium) in a 37° C. water bath, and allow warming for at least 15 minutes prior to use. • 2. Add 80 μL of acetonitrile to each well of the 96-well deep well plate (quenching plate). • 3. In a new 96-well plate, dilute the 10 mM test compounds and the control compounds to 100 μM by combining 198 μL of acetonitrile and 2 μL of 10 mM stock. • 4. Remove a vial of cryopreserved (less than −150° C.) human hepatocytes (LiverPool™ 10 Donor Human hepatocytes obtained from Celsis IVT. Chicago, Ill. (Product No. S01205)) from storage, ensuring that vials remain at cryogenic temperatures until thawing process ensues. As quickly as possible, thaw the cells by placing the vial in a 37° C. water bath and gently shaking the vials. Vials should remain in water bath until all ice crystals have dissolved and are no longer visible. After thawing is completed, spray vial with 70% ethanol, transfer the vial to a bio-safety cabinet. • 5. Open the vial and pour the contents into the 50 mL conical tube containing thawing medium. Place the 50 mL conical tube into a centrifuge and spin at 100 g for 10 minutes. […] Using Cellometer® Vision, count cells and determine the viable cell density. Cells with poor viability (<80% viability) are not acceptable for use. Dilute cells with incubation medium to a working cell density of 1.0×10^6 viable cells/mL. • 7. Transfer 247.5 μL of hepatocytes into each well of a 96-well cell culture plate. Place the plate on Eppendorf Thermomixer Comfort plate shaker to allow the hepatocytes to warm for 10 minutes. • 8. Add 2.5 μL of 100 μM test compound or control compounds into an incubation well containing cells, mix to achieve a homogenous suspension at 0.5 min, which when achieved, will define the 0.5 min time point. At the 0.5 min time, transfer 20 μL incubated mixture to wells in a “Quenching plate” followed by vortexing. • 9. Incubate the plate at 37° C. at 900 rpm on an Eppendorf Thermomixer Comfort plate shaker. At 5, 15, 30, 45, 60, 80, 100 and 120 min, mix the incubation system and transfer samples of 20 μL incubated mixture at each time point to wells in a separate “Quenching plate” followed by vortexing. • 10. Centrifuge the quenching plates for 20 minutes at 4,000 rpm. 4 different compounds are pooled into one cassette and used for LC/MS/MS analysis.
All calculations are carried out using Microsoft Excel. Peak areas are determined from extracted ion chromatograms. In vitro intrinsic clearance (in vitro Clint, in μL/min/10^6 cells) of parent compound is determined by regression analysis of the Ln percent parent disappearance vs. time curve. The in vitro intrinsic clearance (in vitro Clint, in μL/min/10^6 cells) is determined from the slope value using the following equation and is shown in Table C:
V=incubation volume (0.25 mL);
N=number of hepatocytes per well (0.25×10 ^6 cells).

Data set [2] concerns the target ERα receptor in MCF-7 human ductal carcinoma breast cell line (Homo sapiens (Human), UniProt P03372). The data set can be described thus: MCF-7 ER down regulation assay (immuno-fluorescence). It counts as cell-based. Particulars: MCF-7 cells; for DC50: 18-22 hours incubation, read-out: ER down regulation IC50 value. As to the method:
MCF-7 ER Down Regulation Assay
The ability of compounds to down-regulate Estrogen Receptor (ER) numbers was assessed in a cell based immuno-fluorescence assay using the MCF-7 human ductal carcinoma breast cell line. MCF-7 cells were revived directly from a cryovial (approx 5×10^6 cells) in Assay Medium (phenol red free Dulbecco's Modified Eagle's medium (DMEM) (Sigma D5921) containing 2mM L-Glutamine and 5% (v/v) Charcoal/Dextran treated foetal calf serum. Cells were syringed once using a sterile 18 G×1.5 inch (1.2×40 mm) broad gauge needle and cell density was measured using a Coulter Counter (Beckman). Cells were further diluted in Assay Medium to a density of 3.75×10^4 cells per mL and 40 μL per well added to transparent bottomed, black, tissue culture treated 384 well plates (Costar, No. 3712) using a Thermo Scientific Matrix WellMate or Thermo Multidrop. Following cell seeding, plates were incubated overnight at 37° C., 5% CO2 (Liconic carousel incubator). Test data was generated using the LabCyte Echo™ model 555 compound reformatter which is part of an automated workcell (Integrated Echo 2 workcell). 10 mM compound stock solutions of the test compounds were used to generate a 384 well compound dosing plate (Labcyte P-05525-CV1). […] 40 μΛ of DMSO added to wells in row P on the source plate allow for DMSO normalisation across the dose range. To dose the control wells 40 μL of DMSO was added to row O1 and 40 μL of 100 μM fulvestrant in DMSO was added to row O3 on the compound source plate. […] Compounds were dispensed onto the cell plates with a compound source plate prepared as above producing a 12 pt duplicate 3 μM to 3 pM dose range with 3 fold dilutions and one final 10 fold dilution using the Integrated Echo 2 workcell. […] Cells were fixed at room temperature for 20 mins before being washed two times with 250 μL PBS/Proclin (PBS with a Biocide preservative) using a BioTek platewasher, 40 μL of PBS/Proclin was then added to all wells and the plates stored at 4° C. The fixing method described above was carried out on the Integrated Echo 2 workcell. Immunostaining was performed using an automated AutoElisa workcell. The PBS/Proclin was aspirated from all wells and the cells permeabilised with 40 μL PBS containing 0.5% Tween™ 20 (v/v) for 1 hour at room temperature. The plates were washed three times in 250 μL of PBS/0.05% (v/v) Tween 20 with Proclin (PBST with a Biocide preservative) and then 20 μL of ERα (SP1) Rabbit monoclonal antibody (Thermofisher) 1:1000 in PBS/Tween™/3% (w/v) Bovine Serum Albumin was added. The plates were incubated overnight at 4° C. (Liconic carousel incubator) and then washed three times in 250 μL of PBS/0.05% (v/v) Tween™ 20 with Proclin (PBST). The plates were then incubated with 20 μL/well of a goat anti-rabbit IgG AlexaFluor 594 or goat anti-rabbit AlexaFluor 488 antibody (Molecular Probes) with Hoechst at 1:5000 in PBS/Tween™/3% (w/v) Bovine Serum Albumin for lhour at room temperature. The plates were then washed three times in 250 μL of PBS/0.05% (v/v) Tween™ 20 with Proclin (PBST with a Biocide preservative). 20 μL of PBS was added to each well and the plates covered with a black plate seal and stored at 4° C. before being read. Plates were read using a Cellomics Arrayscan reading the 594 nm (24 hr time point) or 488 nm (5 hr timepoint) fluorescence to measure the ERα receptor level in each well. The mean total intensity was normalized for cell number giving the total intensity per cell.

Sequence of ERα receptor in MCF-7 human ductal carcinoma breast cell line (P03372 whole entry): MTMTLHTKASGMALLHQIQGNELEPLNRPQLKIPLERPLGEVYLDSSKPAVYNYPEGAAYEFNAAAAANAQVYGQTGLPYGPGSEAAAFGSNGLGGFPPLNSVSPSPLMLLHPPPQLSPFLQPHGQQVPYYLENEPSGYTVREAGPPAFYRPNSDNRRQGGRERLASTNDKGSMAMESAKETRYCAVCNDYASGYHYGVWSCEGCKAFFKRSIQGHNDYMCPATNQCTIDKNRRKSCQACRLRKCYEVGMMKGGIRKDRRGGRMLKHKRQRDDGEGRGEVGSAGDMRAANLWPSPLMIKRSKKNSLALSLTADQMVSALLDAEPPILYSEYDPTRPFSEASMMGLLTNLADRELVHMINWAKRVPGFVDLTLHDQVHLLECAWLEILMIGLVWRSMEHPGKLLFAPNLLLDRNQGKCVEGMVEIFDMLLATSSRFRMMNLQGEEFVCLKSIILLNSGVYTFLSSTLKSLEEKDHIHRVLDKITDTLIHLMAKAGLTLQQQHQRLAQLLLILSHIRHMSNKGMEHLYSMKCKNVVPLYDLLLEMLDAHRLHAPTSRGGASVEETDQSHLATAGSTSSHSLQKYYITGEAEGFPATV

Turning to `C[C@@H]1Cc2c(ccc3[nH]ncc23)[C@@H](c2ccc(OCCN3CC(CF)C3)cc2)N1CC1(F)CC1` [Example 29, (6R,8R)-7-((1-fluorocyclopropyl)methyl)-6-(4-(2-(3-(fluoromethyl)azetidin-1-yl)ethoxy)phenyl)-8-methyl-6,7,8,9-tetrahydro-3H-pyrazolo[4,3-f]isoquinoline], the hepatocyte CLint at 1 µM in data set [1] turned out to be 12 µL/min/1e6 cells. For the same compound, in data set [2], the DC50 worked out at 0.35 nM. Take `C[C@@H]1Cc2c(ccc3[nH]ncc23)[C@@H](c2c(F)cc(NCCN3CC(CF)C3)cc2F)N1CC(C)(C)F` [Example 47, 3,5-difluoro-4-((6S,8R)-7-(2-fluoro-2-methylpropyl)-8-methyl-6,7,8,9-tetrahydro-3H-pyrazolo[4,3-f]isoquinolin-6-yl)-N-(2-(3-(fluoromethyl)azetidin-1-yl)ethyl)aniline]: the hepatocyte CLint at 1 µM in data set [1] amounted to 8 µL/min/1e6 cells. Also, the DC50 in data set [2] worked out at 0.28 nM. In addition, the “% downregulation (in brackets) in ER down regulation assay” value in data set [2] (>90% unless otherwise stated) is 86%. `C[C@@H]1Cc2c(ccc3[nH]ncc23)[C@@](C)(c2ccc(OCCN3CC(CF)C3)cc2)N1CC1(F)COC1` [Example 32, (6R,8R)-6-(4-(2-(3-(fluoromethyl)azetidin-1-yl)ethoxy)phenyl)-7-((3-fluorooxetan-3-yl)methyl)-6,8-dimethyl-6,7,8,9-tetrahydro-3H-pyrazolo[4,3-f]isoquinoline]: the hepatocyte CLint at 1 µM in data set [1] is 29 µL/min/1e6 cells. Moreover, the DC50 in data set [2] stood at 0.076 nM.

In the case of `C[C@@H]1Cc2c(ccc3[nH]ncc23)[C@@H](c2ccc(OCCN3CC(CF)C3)cc2)N1CC1(F)COC1` [Example 31, (6R,8R)-6-(4-(2-(3-(fluoromethyl)azetidin-1-yl)ethoxy)phenyl)-7-((3-fluorooxetan-3-yl)methyl)-8-methyl-6,7,8,9-tetrahydro-3H-pyrazolo[4,3-f]isoquinoline], in data set [1], the hepatocyte CLint at 1 µM came to 38 µL/min/1e6 cells. Moreover, in data set [2], the DC50 is 0.2 nM. In the same order, the values of `C[C@@H]1Cc2c(ccc3[nH]ncc23)[C@@](C)(c2c(F)cc(OCCN3CC(CF)C3)cc2F)N1CC(C)(C)F` [Example 2, (6S,8R)-6-(2,6-difluoro-4-(2-(3-(fluoromethyl)azetidin-1-yl)ethoxy)phenyl)-7-(2-fluoro-2-methylpropyl)-6,8-dimethyl-6,7,8,9-tetrahydro-3H-pyrazolo[4,3-f]isoquinoline] are 8 µL/min/1e6 cells and 0.088 nM.

With `CC(C)CN1[C@H](c2ccc(OCCN3CC(CF)C3)cc2)c2ccc3[nH]ncc3c2C[C@H]1C` [Example 28, (6R,8R)-6-(4-(2-(3-(fluoromethyl)azetidin-1-yl)ethoxy)phenyl)-7-isobutyl-8-methyl-6,7,8,9-tetrahydro-3H-pyrazolo[4,3-f]isoquinoline], the hepatocyte CLint at 1 µM in data set [1] was 8 µL/min/1e6 cells. In addition, the DC50 in data set [2] came out at 0.14 nM. In the same order, the values of `CC(C)(F)CN1[C@H](c2c(F)cc(OCCN3CC(CF)C3)cc2F)c2ccc3[nH]ncc3c2C[C@H]1C(F)F` [Example 3, (6S,8S)-6-(2,6-difluoro-4-(2-(3-(fluoromethyl)azetidin-1-yl)ethoxy)phenyl)-8-(difluoromethyl)-7-(2-fluoro-2-methylpropyl)-6,7,8,9-tetrahydro-3H-pyrazolo[4,3-f]isoquinoline] are 16 µL/min/1e6 cells and 0.16 nM. The corresponding values for `C[C@@H]1Cc2c(ccc3[nH]ncc23)[C@@H](c2c(F)cc(OCCN3CC(C(F)F)C3)cc2F)N1CC(C)(C)F` [Example 38, (6S,8R)-6-(4-(2-(3-(difluoromethyl)azetidin-1-yl)ethoxy)-2,6-difluorophenyl)-7-(2-fluoro-2-methylpropyl)-8-methyl-6,7,8,9-tetrahydro-3H-pyrazolo[4,3-f]isoquinoline] are 15 µL/min/1e6 cells and 0.26 nM.

As for `COc1cc(OCCN2CC(CF)C2)ccc1[C@@H]1c2ccc3[nH]ncc3c2C[C@@H](C)N1CC(F)(F)CF` [Example 22, (6S,8R)-6-(4-(2-(3-(fluoromethyl)azetidin-1-yl)ethoxy)-2-methoxyphenyl)-8-methyl-7-(2,2,3-trifluoropropyl)-6,7,8,9-tetrahydro-3H-pyrazolo[4,3-f]isoquinoline], the DC50 in data set [2] worked out at 0.15 nM. The same measure, in the same setting: the result for `C[C@@H]1Cc2c(ccc3[nH]ncc23)[C@@H](c2c(F)cc(OCCN3CC(CF)C3)cc2F)N1CC(F)CF` (single isomer, unassigned) [Example 35] reads 0.26 nM; that for `COc1cc(OCCN2CC(CF)C2)ccc1[C@@H]1c2ccc3[nH]ncc3c2C[C@@H](C)N1CC(C)(F)CF` (single isomer, unassigned) [Example 21], 0.13 nM.

As to `COc1nc(OCCN2CC(CF)C2)ccc1[C@@H]1c2ccc3[nH]ncc3c2C[C@@H](C)N1CC1(F)CC1` [Example 46, (6S,8R)-7-((1-fluorocyclopropyl)methyl)-6-(6-(2-(3-(fluoromethyl)azetidin-1-yl)ethoxy)-2-methoxypyridin-3-yl)-8-methyl-6,7,8,9-tetrahydro-3H-pyrazolo[4,3-f]isoquinoline], the DC50 in data set [2] was 0.14 nM. In the case of `CC(C)CN1[C@H](c2c(F)cc(OCCN3CC(CF)C3)cc2F)c2ccc3[nH]nc(F)c3c2C[C@H]1C` [Example 44, (6S,8R)-6-(2,6-difluoro-4-(2-(3-(fluoromethyl)azetidin-1-yl)ethoxy)phenyl)-1-fluoro-7-isobutyl-8-methyl-6,7,8,9-tetrahydro-3H-pyrazolo[4,3-f]isoquinoline], the DC50 in data set [2] is 0.42 nM. For the compound `COCC(F)(F)CN1[C@H](c2ccc(OCCN3CC(CF)C3)cc2OC)c2ccc3[nH]ncc3c2C[C@H]1C` [Example 15, (6S,8R)-7-(2,2-difluoro-3-methoxypropyl)-6-(4-(2-(3-(fluoromethyl)azetidin-1-yl)ethoxy)-2-methoxyphenyl)-8-methyl-6,7,8,9-tetrahydro-3H-pyrazolo[4,3-f]isoquinoline], the DC50 in data set [2] is 0.091 nM.

For the origin of these results see patent US10125135B2, “Chemical compounds” (AstraZeneca AB, priority 2016, dated 2018).
